pIC50: −log10 of the molar value. Each block holds one compound with its values, some of them ahead of it.
Tests used:
[1] = biological target: Tyrosine-protein kinase BTK (Homo sapiens, UniProt Q06187); experiment: Inhibition of BTK (unknown origin) preincubated for 10 mins followed by kinase substrate and ATP addition and measured for 20 mins by mobility shift assay
[2] = biological target: T1, Tyrosine-protein kinase JAK3 (Homo sapiens, UniProt P52333); experiment: Inhibition of JAK3 (unknown origin) preincubated for 10 mins followed by kinase substrate and ATP addition and measured for 30 mins by mobility shift assay
T1 sequence (P52333 whole entry): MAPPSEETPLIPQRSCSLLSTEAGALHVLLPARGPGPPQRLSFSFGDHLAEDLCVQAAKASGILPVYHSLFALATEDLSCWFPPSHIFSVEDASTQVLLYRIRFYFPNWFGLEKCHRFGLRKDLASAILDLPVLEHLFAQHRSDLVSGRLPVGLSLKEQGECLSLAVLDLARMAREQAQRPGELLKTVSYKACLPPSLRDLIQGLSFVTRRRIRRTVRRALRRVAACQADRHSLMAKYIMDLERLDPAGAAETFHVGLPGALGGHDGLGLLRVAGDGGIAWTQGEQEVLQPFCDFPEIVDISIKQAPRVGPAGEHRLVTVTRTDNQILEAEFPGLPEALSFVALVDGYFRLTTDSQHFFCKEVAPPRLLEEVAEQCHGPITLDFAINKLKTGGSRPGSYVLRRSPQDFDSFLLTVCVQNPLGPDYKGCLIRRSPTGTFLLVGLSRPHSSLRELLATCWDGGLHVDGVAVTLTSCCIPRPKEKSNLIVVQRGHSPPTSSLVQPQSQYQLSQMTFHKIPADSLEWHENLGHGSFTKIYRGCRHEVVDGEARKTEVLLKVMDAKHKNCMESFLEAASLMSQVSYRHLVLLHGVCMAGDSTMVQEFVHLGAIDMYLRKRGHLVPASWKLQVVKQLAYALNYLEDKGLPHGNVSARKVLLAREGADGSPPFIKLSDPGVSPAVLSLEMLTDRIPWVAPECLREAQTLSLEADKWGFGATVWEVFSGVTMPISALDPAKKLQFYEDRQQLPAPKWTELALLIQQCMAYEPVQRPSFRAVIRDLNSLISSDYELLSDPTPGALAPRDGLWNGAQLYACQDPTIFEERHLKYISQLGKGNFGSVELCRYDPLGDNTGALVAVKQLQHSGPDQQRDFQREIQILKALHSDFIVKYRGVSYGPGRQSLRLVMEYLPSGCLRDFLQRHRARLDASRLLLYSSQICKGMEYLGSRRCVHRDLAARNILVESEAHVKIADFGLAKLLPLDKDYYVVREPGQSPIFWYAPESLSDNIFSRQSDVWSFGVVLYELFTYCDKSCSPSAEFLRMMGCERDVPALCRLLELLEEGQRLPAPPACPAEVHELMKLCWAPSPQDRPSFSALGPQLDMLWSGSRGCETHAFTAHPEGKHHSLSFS

[3] = Cytotoxicity against HUVEC cells incubated for 12 hrs by MTT assay; type: toxicity, cell-based; conditions: human
[4] = Cytotoxicity against HUVEC cells incubated for 24 hrs by MTT assay; type: toxicity, cell-based; conditions: human
[5] = Cytotoxicity against HUVEC cells incubated for 48 hrs by MTT assay; type: toxicity, cell-based; conditions: human
[6] = Cytotoxicity against mouse RAW264.7 cells incubated for 12 hrs by MTT assay; type: toxicity, cell-based
[7] = Cytotoxicity against mouse RAW264.7 cells incubated for 24 hrs by MTT assay; type: toxicity, cell-based
[8] = Cytotoxicity against mouse RAW264.7 cells incubated for 48 hrs by MTT assay; type: toxicity, cell-based
[9] = Cytotoxicity against human L02 cells incubated for 12 hrs by MTT assay; type: toxicity, cell-based
[10] = Cytotoxicity against human L02 cells incubated for 24 hrs by MTT assay; type: toxicity, cell-based
[11] = Cytotoxicity against human L02 cells incubated for 48 hrs by MTT assay; type: toxicity, cell-based
[12] = Cytotoxicity against rat NRK cells incubated for 12 hrs by MTT assay; type: toxicity, cell-based
[13] = Cytotoxicity against rat NRK cells incubated for 24 hrs by MTT assay; type: toxicity, cell-based
[14] = Cytotoxicity against rat NRK cells incubated for 48 hrs by MTT assay; type: toxicity, cell-based
[15] = Tmax in Sprague-Dawley rat at 50 mg/kg, po by LC/MS analysis; type: ADME, organism-based; conditions: in vivo
[16] = Cmax in Sprague-Dawley rat at 50 mg/kg, po measured for 720 mins by LC/MS analysis; type: ADME, organism-based; set-up: dose 50 mg/kg, time 720 min, route po; conditions: in vivo
[17] = AUC(all) in Sprague-Dawley rat at 50 mg/kg, po measured for 720 mins by LC/MS analysis; type: ADME, organism-based; set-up: dose 50 mg/kg, time 720 min, route po; conditions: in vivo
[18] = Observed MRT(infinity) in Sprague-Dawley rat at 50 mg/kg, po measured for 720 mins by LC/MS analysis; type: ADME, organism-based; conditions: in vivo
[19] = Half life in Sprague-Dawley rat at 50 mg/kg, po by LC/MS analysis; type: ADME, organism-based; conditions: in vivo
[20] = Oral bioavailability in Sprague-Dawley rat at 50 mg/kg measured for 720 mins by LC/MS analysis; type: ADME, organism-based; conditions: in vivo
[21] = AUC(all) in Sprague-Dawley rat at 5 mg/kg, iv measured for 720 mins by LC/MS analysis; type: ADME, organism-based; set-up: time 720 min, dose 5 mg/kg, route iv; conditions: in vivo
[22] = Observed MRT(infinity) in Sprague-Dawley rat at 5 mg/kg, iv measured for 720 mins by LC/MS analysis; type: ADME, organism-based; conditions: in vivo
[23] = tested on: BaF3; experiment: Antiproliferative activity against mouse BaF3 cells expressing JAK3 mutant assessed as inhibition of cell growth incubated for 72 hrs by Cell Titer-Glo assay; type: functional, cell-based; conditions: BaF3, 72 h
[24] = tested on: Daudi; experiment: Antiproliferative activity against human Daudi cells assessed as inhibition of cell growth incubated for 72 hrs by Cell Titer-Glo assay; type: functional, cell-based
[25] = Acute toxicity in po dosed ICR mouse assessed as minimum lethal dose measured for 7 days; type: organism-based; conditions: in vivo, 168 h, time 7 day
[26] = biological target: Voltage-gated inwardly rectifying potassium channel KCNH2 (Homo sapiens, UniProt Q12809); experiment: Inhibition of human ERG by patch clamp assay
[27] = biological target: Tyrosine-protein kinase JAK1 (Homo sapiens, UniProt P23458); experiment: Inhibition of JAK1 (unknown origin) using kinetic substrate in presence of ATP by mobility shift assay
[28] = biological target: Tyrosine-protein kinase JAK2 (Homo sapiens, UniProt O60674); experiment: Inhibition of JAK2 (unknown origin) using kinetic substrate in presence of ATP by mobility shift assay
[29] = biological target: Non-receptor tyrosine-protein kinase TYK2 (Homo sapiens, UniProt P29597); experiment: Inhibition of TYK2 (unknown origin) using kinetic substrate in presence of ATP by mobility shift assay

Tyrosine-protein kinase BTK, sequence (Q06187 whole entry): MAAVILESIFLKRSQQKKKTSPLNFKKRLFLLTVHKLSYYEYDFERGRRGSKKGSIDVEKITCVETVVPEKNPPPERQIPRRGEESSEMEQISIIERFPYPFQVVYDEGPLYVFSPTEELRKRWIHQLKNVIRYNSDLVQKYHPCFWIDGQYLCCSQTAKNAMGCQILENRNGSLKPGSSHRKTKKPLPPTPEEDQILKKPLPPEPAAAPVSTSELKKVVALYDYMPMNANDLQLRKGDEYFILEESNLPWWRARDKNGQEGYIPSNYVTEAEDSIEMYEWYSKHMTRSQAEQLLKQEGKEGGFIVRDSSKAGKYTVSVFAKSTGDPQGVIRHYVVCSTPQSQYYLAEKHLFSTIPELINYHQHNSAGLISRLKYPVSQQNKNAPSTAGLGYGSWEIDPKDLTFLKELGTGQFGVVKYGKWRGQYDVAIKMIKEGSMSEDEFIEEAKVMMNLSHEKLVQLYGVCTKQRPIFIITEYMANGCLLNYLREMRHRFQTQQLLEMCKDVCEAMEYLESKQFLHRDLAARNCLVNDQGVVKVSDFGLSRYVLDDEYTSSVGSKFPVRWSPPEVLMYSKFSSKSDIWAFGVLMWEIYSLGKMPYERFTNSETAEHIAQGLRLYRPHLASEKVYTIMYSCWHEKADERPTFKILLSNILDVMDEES
Tyrosine-protein kinase JAK2, sequence (O60674 whole entry): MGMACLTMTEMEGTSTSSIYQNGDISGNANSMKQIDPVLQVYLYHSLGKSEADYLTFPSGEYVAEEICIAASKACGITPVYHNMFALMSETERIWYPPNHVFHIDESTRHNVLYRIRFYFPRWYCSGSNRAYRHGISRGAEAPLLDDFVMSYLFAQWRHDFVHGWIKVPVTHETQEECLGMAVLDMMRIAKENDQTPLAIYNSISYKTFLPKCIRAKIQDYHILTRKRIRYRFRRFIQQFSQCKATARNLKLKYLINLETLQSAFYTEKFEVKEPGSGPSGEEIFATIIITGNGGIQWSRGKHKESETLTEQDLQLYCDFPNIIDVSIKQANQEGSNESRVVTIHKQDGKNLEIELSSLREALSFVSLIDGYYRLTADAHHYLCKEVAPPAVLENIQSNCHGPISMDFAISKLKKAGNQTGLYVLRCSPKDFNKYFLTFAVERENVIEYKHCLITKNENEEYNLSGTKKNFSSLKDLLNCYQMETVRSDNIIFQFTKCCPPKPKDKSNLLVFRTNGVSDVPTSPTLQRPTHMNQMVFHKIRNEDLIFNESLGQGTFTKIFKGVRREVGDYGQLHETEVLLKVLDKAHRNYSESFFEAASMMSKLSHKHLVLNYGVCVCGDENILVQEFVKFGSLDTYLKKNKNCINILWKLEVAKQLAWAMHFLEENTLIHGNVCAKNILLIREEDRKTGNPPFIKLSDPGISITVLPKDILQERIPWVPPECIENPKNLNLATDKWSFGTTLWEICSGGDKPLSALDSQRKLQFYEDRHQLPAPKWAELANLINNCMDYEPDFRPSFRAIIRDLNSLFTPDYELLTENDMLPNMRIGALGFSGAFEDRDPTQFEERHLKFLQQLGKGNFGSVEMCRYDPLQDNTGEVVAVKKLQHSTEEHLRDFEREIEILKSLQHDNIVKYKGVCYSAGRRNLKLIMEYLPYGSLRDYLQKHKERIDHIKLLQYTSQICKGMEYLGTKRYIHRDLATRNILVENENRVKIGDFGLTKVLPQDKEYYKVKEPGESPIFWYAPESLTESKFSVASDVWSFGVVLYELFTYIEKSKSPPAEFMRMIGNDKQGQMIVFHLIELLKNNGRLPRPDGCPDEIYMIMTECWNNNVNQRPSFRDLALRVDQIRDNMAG
Tyrosine-protein kinase JAK1, sequence (P23458 whole entry): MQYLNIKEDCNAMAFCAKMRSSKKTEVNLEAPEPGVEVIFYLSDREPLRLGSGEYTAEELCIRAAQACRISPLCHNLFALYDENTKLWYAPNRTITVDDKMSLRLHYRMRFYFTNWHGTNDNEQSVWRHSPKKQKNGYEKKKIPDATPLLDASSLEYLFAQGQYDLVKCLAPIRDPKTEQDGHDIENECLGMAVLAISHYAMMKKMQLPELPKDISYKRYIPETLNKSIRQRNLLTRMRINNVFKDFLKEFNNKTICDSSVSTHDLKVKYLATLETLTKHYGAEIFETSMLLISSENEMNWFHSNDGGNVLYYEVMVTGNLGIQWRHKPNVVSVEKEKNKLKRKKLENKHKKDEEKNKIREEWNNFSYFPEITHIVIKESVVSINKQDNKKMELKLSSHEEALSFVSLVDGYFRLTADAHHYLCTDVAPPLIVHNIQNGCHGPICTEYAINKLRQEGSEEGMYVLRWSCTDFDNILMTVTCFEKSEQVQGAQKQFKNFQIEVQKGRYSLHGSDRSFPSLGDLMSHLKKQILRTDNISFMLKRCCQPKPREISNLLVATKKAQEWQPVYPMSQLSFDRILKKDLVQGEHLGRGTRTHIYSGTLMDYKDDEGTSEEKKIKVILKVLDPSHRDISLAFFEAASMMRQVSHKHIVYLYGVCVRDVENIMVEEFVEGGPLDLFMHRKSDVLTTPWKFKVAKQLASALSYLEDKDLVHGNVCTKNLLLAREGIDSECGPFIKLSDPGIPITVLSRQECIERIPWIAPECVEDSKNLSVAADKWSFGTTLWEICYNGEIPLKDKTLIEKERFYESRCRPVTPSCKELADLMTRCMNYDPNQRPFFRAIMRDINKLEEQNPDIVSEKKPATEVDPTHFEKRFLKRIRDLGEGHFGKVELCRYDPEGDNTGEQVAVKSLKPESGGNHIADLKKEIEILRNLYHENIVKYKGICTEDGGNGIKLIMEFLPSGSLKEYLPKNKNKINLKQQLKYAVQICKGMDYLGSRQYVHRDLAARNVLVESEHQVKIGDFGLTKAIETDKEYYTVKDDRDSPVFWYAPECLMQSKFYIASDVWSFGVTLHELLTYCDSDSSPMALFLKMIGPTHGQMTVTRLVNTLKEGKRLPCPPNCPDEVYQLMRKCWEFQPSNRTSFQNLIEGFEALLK
Voltage-gated inwardly rectifying potassium channel KCNH2, sequence (Q12809 whole entry): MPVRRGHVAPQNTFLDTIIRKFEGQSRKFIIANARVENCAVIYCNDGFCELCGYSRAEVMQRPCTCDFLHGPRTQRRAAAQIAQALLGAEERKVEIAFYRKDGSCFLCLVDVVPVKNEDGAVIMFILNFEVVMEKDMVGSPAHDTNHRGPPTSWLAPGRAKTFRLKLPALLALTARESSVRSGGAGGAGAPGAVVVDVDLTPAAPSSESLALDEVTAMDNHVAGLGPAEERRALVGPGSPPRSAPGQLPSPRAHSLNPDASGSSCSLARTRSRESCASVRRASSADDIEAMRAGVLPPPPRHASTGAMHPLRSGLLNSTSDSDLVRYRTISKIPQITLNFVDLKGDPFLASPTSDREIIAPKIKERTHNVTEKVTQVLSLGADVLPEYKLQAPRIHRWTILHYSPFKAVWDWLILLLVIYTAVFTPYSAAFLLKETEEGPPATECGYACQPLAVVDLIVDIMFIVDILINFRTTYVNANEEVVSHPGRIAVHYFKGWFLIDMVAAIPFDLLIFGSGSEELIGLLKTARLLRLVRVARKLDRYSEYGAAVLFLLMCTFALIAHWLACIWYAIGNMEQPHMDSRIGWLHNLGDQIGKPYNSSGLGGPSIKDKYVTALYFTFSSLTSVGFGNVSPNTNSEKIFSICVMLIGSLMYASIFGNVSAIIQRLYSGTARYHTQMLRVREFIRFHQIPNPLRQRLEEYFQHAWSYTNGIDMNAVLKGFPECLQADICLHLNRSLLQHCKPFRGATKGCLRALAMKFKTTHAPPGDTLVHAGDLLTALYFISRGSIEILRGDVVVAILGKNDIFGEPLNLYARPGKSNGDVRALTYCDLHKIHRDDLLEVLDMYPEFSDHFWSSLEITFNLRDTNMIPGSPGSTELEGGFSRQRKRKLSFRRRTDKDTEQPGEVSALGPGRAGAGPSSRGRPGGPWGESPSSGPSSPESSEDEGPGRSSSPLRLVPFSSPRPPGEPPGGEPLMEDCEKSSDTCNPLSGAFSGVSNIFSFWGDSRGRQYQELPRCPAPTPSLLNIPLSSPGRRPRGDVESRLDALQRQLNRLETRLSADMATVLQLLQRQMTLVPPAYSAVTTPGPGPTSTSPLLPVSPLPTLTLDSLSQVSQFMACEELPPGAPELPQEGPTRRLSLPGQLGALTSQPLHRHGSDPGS

pIC50 [1]: 8.57 | pIC50 [2]: 7.43
SMILES: C=CC(=O)N1CCC[C@@H](n2nc(-c3ccc(NC(=O)c4ccc(C(C)(C)C)cc4)c4c3OCO4)c3c(N)ncnc32)C1

pIC50 [1]: 8.89 | pIC50 [2]: 7.14
SMILES: C=CC(=O)N1CCC[C@@H](n2nc(-c3ccc(NC(=O)c4ccccc4)c4c3OCO4)c3c(N)ncnc32)C1

pIC50 [1]: 8.66 | pIC50 [2]: 7.57
SMILES: C=CC(=O)N1CCC[C@@H](n2nc(-c3ccc(NC(=O)c4ccc(N(CC)CC)cc4)c4c3OCO4)c3c(N)ncnc32)C1

pIC50 [1]: 8.82 | pIC50 [2]: 7.36
SMILES: C=CC(=O)N1CCC[C@@H](n2nc(-c3ccc(NC(=O)c4ccc(OC)cc4)c4c3OCO4)c3c(N)ncnc32)C1

pIC50 [1]: 8.99 | pIC50 [2]: 7.01
SMILES: C=CC(=O)N1CCC[C@@H](n2nc(-c3ccc(NC(=O)c4cccc(N(C)C)c4)c4c3OCO4)c3c(N)ncnc32)C1

pIC50 [1]: 9.05 | pIC50 [2]: 6.75
SMILES: C=CC(=O)N1CCC[C@@H](n2nc(-c3ccc(NC(=O)c4ccc(F)cc4)c4c3OCO4)c3c(N)ncnc32)C1

Second part, the compound before the results:

SMILES: C=CC(=O)N1CCC[C@@H](n2nc(-c3ccc(NC(=O)c4cccs4)c4c3OCO4)c3c(N)ncnc32)C1
pIC50 [1]: 8.77 | pIC50 [2]: 7.21

SMILES: C=CC(=O)N1CCC[C@@H](n2nc(-c3ccc(NC(=O)c4cccc(Cl)c4)c4c3OCO4)c3c(N)ncnc32)C1
pIC50 [1]: 8.74 | pIC50 [2]: 7.36

SMILES: C=CC(=O)N1CCC[C@@H](n2nc(-c3ccc(NC(=O)c4ccccn4)c4c3OCO4)c3c(N)ncnc32)C1
pIC50 [1]: 8.85 | pIC50 [2]: 7.15

SMILES: C=CC(=O)N1CCC[C@@H](n2nc(-c3ccc(NC(=O)c4ccccc4Cl)c4c3OCO4)c3c(N)ncnc32)C1
pIC50 [1]: 8.70 | pIC50 [2]: 6.97

SMILES: C=CC(=O)N1CCC[C@@H](n2nc(-c3ccc(NC(=O)c4sc5ccccc5c4Cl)c4c3OCO4)c3c(N)ncnc32)C1
pIC50 [1]: 8.62 | pIC50 [2]: 7.52

SMILES: CCC(=O)N1CCC[C@@H](n2nc(-c3ccc(NC(=O)c4ccccc4)c4c3OCO4)c3c(N)ncnc32)C1
pIC50 [1]: 7.34 | pIC50 [2]: < 5.00

SMILES: C=CC(=O)N1CCC[C@@H](n2nc(-c3ccc(NC(=O)c4cccc5c4CCCC5)c4c3OCO4)c3c(N)ncnc32)C1
pIC50 [1]: 8.72 | pIC50 [2]: 7.46

SMILES: N#CCC(=O)N1CCC[C@@H](n2nc(-c3ccc(NC(=O)c4ccccc4)c4c3OCO4)c3c(N)ncnc32)C1
pIC50 [1]: 7.22 | pIC50 [2]: < 5.00

SMILES: C=CC(=O)N1CCC[C@@H]1Cn1nc(-c2ccc(NC(=O)c3ccc(N(C)C)cc3)c3c2OCO3)c2c(N)ncnc21
pIC50 [1]: 8.22 | pIC50 [2]: 6.19

SMILES: C=CC(=O)N1CCC[C@@H](n2nc(-c3ccc(NC(=O)c4ccc(N(C)C)cc4)c4c3OCO4)c3c(N)ncnc32)C1
IC50 at 12 h [3]: 50 µM | IC50 at 24 h [4]: 40.6 µM | IC50 at 48 h [5]: 27.3 µM | IC50 at 12 h [6]: 60.8 µM | IC50 at 24 h [7]: 50.6 µM | IC50 at 48 h [8]: 19.7 µM | IC50 at 12 h [9]: 69.9 µM | IC50 at 24 h [10]: 28.2 µM | IC50 at 48 h [11]: 9.61 µM | IC50 at 12 h [12]: 51 µM | IC50 at 24 h [13]: 15.7 µM | IC50 at 48 h [14]: 11.8 µM | Tmax [15]: 0.459 h | Cmax [16]: 209 ng/mL | AUC at 12 h [17]: 437 ng·h/mL | MRT inf [18]: 3.4 h | half-life [19]: 2.57 h | bioavailability [20]: 13.2% | AUC at 12 h [21]: 299 ng·h/mL | MRT inf [22]: 9.36 min | pIC50 [23]: 6.44 | pIC50 [24]: 6.16 | pIC50 [1]: 8.70 | pIC50 [2]: 7.85 | MLD [25]: > 1600 mg/kg | pIC50 [26]: 4.83 | pIC50 [27]: < 5.00 | pIC50 [28]: < 5.00 | pIC50 [29]: < 5.00

— ChEMBL document CHEMBL5329199, “Discovery of novel dual Bruton's tyrosine kinase (BTK) and Janus kinase 3 (JAK3) inhibitors as a promising strategy for rheumatoid arthritis” (Bioorg Med Chem, 2023)
